Literature values as cited in patent US20230226079A1, “METHODS AND COMPOSITIONS FOR TREATMENT OF SOLID TUMORS” (Saint Louis University, priority 2022, published 2023).

What was measured:
different models = details: cited from earlier work
[1] = literature; cited from earlier work
[2] = in vivo; cited from earlier work

Compound | Reported Biology [1] | other results
eleostearic acids | – | anticancer effect (different models): showed anticancer effect
Sacranoside A | nitric oxide inhibitory | –
C[C@H](C/C=C/C(C)(C)O)[C@H]1CC[C@@]2(C)[C@@H]3[C@@H](O[C@@H]4O[C@H](CO)[C@@H](O)[C@H](O)[C@H]4O)C=C4[C@@H](CC[C@H](O)C4(C)C)[C@]3(C=O)CC[C@]12C [Momordicoside L] | Weak α-glucosidase | –
CO[C@H]1C=C2[C@@H](CC[C@H](O[C@@H]3O[C@H](CO)[C@@H](O)[C@@H](O)[C@H]3O)C2(C)C)[C@]2(C)CC[C@]3(C)[C@@H]([C@H](C)C/C=C/C(C)(C)O)CC[C@@]3(C)[C@H]12 [Karaviloside III] | cytotoxic activity | –
CN1CCN(C2CCN(C(=O)Nc3cc(Oc4ccc(NC(=O)C5(C(=O)Nc6ccc(F)cc6)CC5)c(F)c4)ccn3)CC2)CC1 [Golvatinib] | – | adverse side effects [2]: supraventricular tachycardia, convulsion, and pulmonary embolism
C=C(C)/C=C/C[C@@H](C)[C@H]1CC[C@@]2(C)[C@@H]3[C@@H](O)C=C4[C@@H](CC[C@H](O)C4(C)C)[C@]3(C=O)CC[C@]12C [kuguacin J] | – | anticancer effect (different models): showed anticancer effect
COc1cc2c(Oc3ccc(NC(=O)C4(C(=O)Nc5ccc(F)cc5)CC4)cc3F)ccnc2cc1OCCCN1CCOCC1 [Foretinib] | – | adverse side effects [2]: fatigue, hypertension, and gastrointestinal toxicities
Karayiloside XI | Antidiabetic | –
